The target in one assay is T1, human cyp11B1 (Homo sapiens, UniProt P15538).
T1 construct: expressed in transfected cells
T1 sequence (P15538 25-503): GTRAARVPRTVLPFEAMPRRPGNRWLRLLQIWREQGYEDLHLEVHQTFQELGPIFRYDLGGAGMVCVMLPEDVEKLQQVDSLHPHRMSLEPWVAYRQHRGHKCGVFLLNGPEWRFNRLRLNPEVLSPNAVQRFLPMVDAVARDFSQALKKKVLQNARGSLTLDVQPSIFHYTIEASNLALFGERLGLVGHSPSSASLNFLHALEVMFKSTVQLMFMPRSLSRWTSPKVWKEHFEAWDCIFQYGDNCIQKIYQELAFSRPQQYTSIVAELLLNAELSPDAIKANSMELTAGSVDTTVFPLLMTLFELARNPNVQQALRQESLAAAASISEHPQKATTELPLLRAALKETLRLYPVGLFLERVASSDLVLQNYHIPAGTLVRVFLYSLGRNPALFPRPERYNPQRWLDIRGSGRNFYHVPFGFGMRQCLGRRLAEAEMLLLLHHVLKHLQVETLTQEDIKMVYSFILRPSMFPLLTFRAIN
In words: Cortisol Inhibition Assay (V79-human cyp11B1 cells, cortisol by LC-MS). It counts as cell-based. The following applies: for Selectivity Ratio: IC50(hcyp11B1)/IC50(hcyp11B2); for IC50: V79-human cyp11B1 cells, cortisol production from 1 μM 11-deoxycortisol, 24 hours incubation, read-out: IC50 (hcyp11B1). The protocol:
Chinese hamster fibroblast cells (V79) constitutively expressing human cyp11B1 are established by transfection with a mammalian expression vector harboring the human cyp11B1 cDNA under CMV promoter and a neomycin antibiotic resistant gene for selection in mammalian cells. V79 cells are transfected in T225 cm^2 flasks with the lipofectamine transfection reagent and the human cyp11B1 cDNA. Positive clones are selected with the selection antibiotic geneticin at 1 mg/mL. Cortisol production from transfected cells is initiated by the addition of 1 μM 11-deoxycortisol in the medium. After 24 hours incubation, culture medium is collected and cortisol concentration in the medium is determined using a liquid chromatography-mass spectrometry (LC-MS) method. The cell media (100 μL) is transferred to a new deep-well 96-well plate. A Beckman Coulter FX liquid handling system (modified for use with organic solvents) with a 96-tip head is used to add an IS solution to each well (10 μl of 200 ng/mL d-4-cortisol). The wells are then extracted 3× with EtOAc (300 μl) using the FX, combining the organic layers in a new deep-well 96-well plate. The solvent is then dried in a GeneVac HT-4 or under nitrogen. The FX is then used to reconstitute the samples in 50% MeOH/water (100 μl) and the plates are heat-sealed.
A 40 μl aliquot of the sample is injected and a gradient from 20-100% MeOH in 0.95 min is initiated. […] Starting conditions are then held for 1 minute to re-equilibrate the column. An ABI QTRAP 4000 tandem mass spectrometer is used for MS/MS analysis in the positive ion mode. […] These are respectively integrated to give the peak areas. The cortisol/IS area-ratio is used to determine cortisol concentration by comparison to a standard curve. The detection limit for cortisol is 1 ng/mL.
11-Deoxycortisol and various concentrations of test compounds in 1:3 dilution increments are added to the cell culture medium. After 24 hours incubation, 100 μl of cell medium are collected and cortisol concentration determined as described above. Data are fit to a 4 parameter-fit logistics curve to determine IC50 values.

For another assay, the target named is T2, human cyp11B2 (Homo sapiens, UniProt P19099).
T2 construct: expressed in transfected cells
T2 sequence (P19099 25-503): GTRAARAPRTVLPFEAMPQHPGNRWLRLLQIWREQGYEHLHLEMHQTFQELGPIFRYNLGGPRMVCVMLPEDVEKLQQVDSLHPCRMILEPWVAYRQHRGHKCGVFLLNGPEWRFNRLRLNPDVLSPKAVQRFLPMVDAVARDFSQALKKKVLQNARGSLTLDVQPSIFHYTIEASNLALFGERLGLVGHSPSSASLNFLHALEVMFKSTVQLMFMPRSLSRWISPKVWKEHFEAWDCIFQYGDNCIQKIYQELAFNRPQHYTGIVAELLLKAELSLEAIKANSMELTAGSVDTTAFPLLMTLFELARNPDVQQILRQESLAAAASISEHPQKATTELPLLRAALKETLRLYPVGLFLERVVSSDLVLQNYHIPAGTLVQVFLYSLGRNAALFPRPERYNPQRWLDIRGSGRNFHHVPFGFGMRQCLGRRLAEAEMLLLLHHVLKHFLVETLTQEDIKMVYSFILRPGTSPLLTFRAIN
In words: Aldosterone Synthase Inhibitor Assay (V79-hcyp11B2 cells, aldosterone by LC-MS). It counts as cell-based. The following applies: aldosterone production from 1 μM DOC, 24 hours incubation, geometric means, separate experiments. The protocol: Chinese hamster fibroblast cells (V79, ATCC™) constitutively expressing human cyp11B2 are established by transfection with a mammalian expression vector harboring the human cyp11B2 cDNA under CMV promoter and a neomycin antibiotic resistant gene for selection in mammalian cells. V79 cells are transfected in T225 cm^2 flasks with the lipofectamine transfection reagent and the human cyp11B2 cDNA. Positive clones are selected with the selection antibiotic geneticin at 1 mg/mL.
Aldosterone production from transfected cells is initiated by the addition of 1 μM DOC in the medium. After 24 hours incubation, 100 μL cell culture medium is collected and aldosterone concentration in the medium is determined using a liquid chromatography-mass spectrometry (LC-MS) method. […] The wells are then extracted 3× with EtOAc (150 μl) using the FX, combining the organic layers in a new 96-well plate. The solvent is dried in a GeneVac HT-4 or under nitrogen. […] A 25 μl aliquot of the sample is injected and a gradient from 20-100% ACN+0.1% formic acid (FA) in 1 min is initiated. Aldosterone elutes at 0.7 min. Starting conditions are held for 1 minute to re-equilibrate the column. An ABI 4000 tandem mass spectrometer is used for MS/MS analysis in the negative ion mode. […] The area under the peak from each transition is added together to comprise the signal from aldosterone and IS, respectively. […] The detection limit for aldosterone is […].
DOC and various concentrations of test compounds in 1:3 dilution increments are added to the cell culture medium. After 24 hours incubation, 100 μl of cell medium are collected and aldosterone concentration determined as described above. Data are fit to a 4 parameter-fit logistics curve to determine IC50 values.

`CC1(C)CC(c2ccc(C#N)cc2F)c2cn[nH]c21` (single isomer, unassigned; isomer 1) [Example 49, 4-(6,6-Dimethyl-4,5-dihydro-1H-cyclopenta[c]pyrazol-4-yl)-3-fluoro-benzonitrile, isomer 1]: on human cyp11B1, the “Selectivity Ratio” value is recorded as 44.4. The IC50 on human cyp11B1 came out at 311 nM; against human cyp11B2, 7 nM.

In the case of `CC1(C)C[C@H](c2ccc(C#N)cc2)c2cn[nH]c21` (single isomer, unassigned) [Example 1], at human cyp11B1, the “Selectivity Ratio” value amounted to 33.0 and the IC50 is 165 nM. For the same compound, inhibition at human cyp11B2 was half-maximal at 5 nM (IC50).

The record behind these values is patent US8778984B2, “Aldosterone synthase inhibitor” (Eli Lilly and Company, priority 2011, dated 2014).
